The source of these data is US9662404B2, “Compositions and methods for the delivery of molecules into live cells” (The Texas A&M University System, priority 2013, dated 2017).

Experiment [1] has as its system Dorsal root ganglion F11 (DRG-F11) neuronal cells. The experiment is described as follows: dTAT penetration into cells resistant to transfection. The settings on record: 5 μM, 1 hour. Type of experiment: cell-based. As for the experimental part: Dorsal root ganglion F11 (DRG-F11) neuronal cells are notoriously difficult to transfect. dTAT exposure was tested in DRG-F11 cells to determine whether the transfection difficulties also posed a barrier for dTAT. DRG-F11 cells were incubated for 1 hour with dTAT (5 μM).

In experiment [2] the test system is neuronal cell line Neuro-2a and primary human dermal fibroblasts (HDF). The experiment is described as follows: Cellular localization of dTAT in neuronal and primary cells. The experiment is classed as cell-based. The settings on record: 1 h incubation. As to the method: FIG. 11 illustrates the cellular localization of dTAT after 1 h incubation with neuronal cell line Neuro-2a (left panel) and primary human dermal fibroblasts (HDF) (right panel). Cells were incubated with dTAT, washed, and imaged with a 100× objective. […] FIG. 12 graphically illustrates the proliferation rate (absorbance in an MTT assay) of treated and untreated HeLa, Neuro-2a, and HDF cells.

Experiment [3] concerns HeLa cells. The experiment is described as follows: dTAT-induced cytosolic release of DEAC-K9 trapped inside endosomes. The experiment is classed as cell-based. The settings on record: 5 μM DEAC-K9 1 h, wash, 5 μM dTAT 1 h. As for the experimental part:
FIGS. 8A-8C illustrate that dTAT mediates endosomal escape. (FIG. 8A) Effect of endocytic inhibitors on the cellular distribution of dTAT. HeLa cells were pre-treated with 50 μM amiloride or 200 nM bafilomycin for 30 and 20 min respectively, washed, and incubated with 5 μM dTAT and inhibitor. […] Scale bar, 10 μm. […] A schematic illustration of the experimental steps is shown (top). First, cells were incubated with 5 μM DEAC-K9 for 1 h and washed. Inverted monochrome images show a fluorescence punctuate distribution after incubation with DEAC-K9 alone. The same cells were then incubated with 5 μM dTAT for 1 h. Images show a redistribution of DEAC-K9 to the cytosol and nucleus (inhibited by bafilomycin). Scale bars, 10 μm. (FIG. 8C) The endosomolytic activity of dTAT is highly efficient. HeLa cells expressing SNAPH2B were incubated with 5 μM dTAT and 5 μM SNAP-Surface® 488. Fluorescence images show accumulation of SNAP-Surface® 488 in the nucleus. […] Small panels show cytosolic and nuclear fluorescence of TMR. Scale bars, 10 μm.
To test whether endosomal escape is involved in delivery of dTAT, the effects of amiloride, a macropinocytosis inhibitor, and bafilomycin, an inhibitor of endosomal acidification, were assessed. […] Cells were then washed and incubated with dTAT (FIG. 8B). […] This redistribution was however inhibited by bafilomycin.

In experiment [4] the test system is NIH 3T3 cells. Description: HoxB4 and TAT-HoxB4 delivery, luciferase reporter under a HoxB4-inducible promoter. Type of experiment: cell-based, murine. The settings on record: dTAT 3 μM alone. As to the method:
Next, the delivery of the therapeutically important transcription factor HoxB4 was tested. HoxB4 can penetrate cells by itself or when fused to the […] TAT and activate transcription. […] NIH 3T3 cells were transfected with a vector containing the luciferase gene under a HoxB4-inducible promoter and with a β-galactosidase reporter as internal control. Cells were incubated with HoxB4 or TAT-HoxB4, in the absence or presence of dTAT for 1.5 h. Cells were then lysed and luciferase expression was assessed by measuring the luminescence of cell lysates normalized to β-galactosidase activity. […] These values are consistent with previously published reports. In contrast, addition of dTAT (3 μM), led to a luciferase induction of 53.1 and 307.4, respectively. The luciferase induction was therefore increased 24-fold in the presence of dTAT for HoxB4 and 61-fold for TAT-HoxB4. […] While increasing the transcriptional output of HoxB4 is valuable, high levels of HoxB4 expression can result in anti-proliferative and transforming effects. Precisely controlling the level and activity of HoxB4 inside cells is therefore important to achieve a desirable biological outcome. Because dTAT appears to act independently of the molecules used for co-incubation in our assays, it was hypothesized that it might be possible to titrate the amount of protein that penetrates cells by varying the protein concentration in the media while keeping dTAT concentration constant. Under this scenario, the efficiency of endosomal escape should remain unaffected but the amount of material released from endosomes should change.
The murine fibroblast cell line (NIH-3T3, stably transfected with the E2A-PBX vector), the luciferase reporter vector, pML (5×HOX/PBX; contains a promoter with binding sites for HOXB4 and PBX) and the β-gal internal control vector used in the following studies were kindly provided by P. Zandstra (University of Toronto, Ontario, Canada). The cells were initially cultured in 100 mm dishes at 37° C. with 5% CO2 in DMEM supplemented with 10% FBS. For experimental purposes, however, cells were seeded in 24-well plates at a density of 5-6×10^4 cells/well for 24 hours. Subsequently, cells were co-transfected with 0.8 μg/mL of pML (5×HOX/PBX) and of the β-gal internal control vector using Lipofectamine 2000. Twelve hours post-transfection, cells were washed and incubated with TAT-HoxB4 or HoxB4 (both at 200 nM, unless otherwise noted; see below) with or without TAT or dTAT in nrL-15 for 90 min. Some cells were also incubated with TAT-mCherry (200 nM) with and without the peptides. After incubation, all cells were washed with PBS and lysed according to the manufacturer's protocol for the reporter lysis buffer (RLB) (Promega). For titration experiments, the same protocol was followed, with the exception that HoxB4 concentrations were varied (25, 50, 100, 150 and 200 nM). In order to quantitate the luciferase reporter activity, 100 μL of luciferase assay reagent (Promega) was added to 20 μL of cell lysate and bioluminescence was immediately measured using a SpectraMaxL luminometer (Sunnyvale, Calif.). […] Absorbance was then measured at 450 nm using the plate reader. Since the absorption spectrum of the chromophore (TMR) conjugated to the peptide used in this study overlaps with that of β-gal, 20 μL of cell lysate containing the peptide was also diluted with 180 μL of the lysis buffer and absorbance values obtained at 450 nm were subtracted from that of the β-gal absorbance values. […]

Experiment [5] relates to HeLa cells. Description: Step-wise repeated delivery of DEAC-K9 and SNAP-Surface 488. Particulars: 5 μM dTAT + 5 μM DEAC-K9 1 h, then 5 μM dTAT + 5 μM SNAP-Surface 488 1 h. The experiment is classed as cell-based.
Protocol: To test this idea, the step-wise delivery of two different molecules (DEAC-K9 and SNAP-Surface® 488) was assessed. Cells were first incubated with dTAT (5 μM) and DEAC-K9 (5 μM) for 1 h. […] Twenty minutes later, cells were incubated with dTAT (5 μM) and SNAP-Surface® 488 (5 μM) for 1 h. […] Briefly, HeLa cells were first incubated with 5 μM dTAT and 5 μM DEAC-K9 for 1 h. Cells were then washed, incubated with 5 μM SNAP-Surface® 488 for 1 h and imaged.

Ends that are not written are not given here.

On to “(CK(TMR)TAT)2 (CK(TMR)RKKRRQRRRG; also: dimer) [dTAT, dimer of two CK(TMR)-TAT monomers linked via a disulfide bond between the N-terminal cysteine residues]”, for which the “penetration into the cytosol” value in experiment [1] was “penetrates into the cytosol of DRG-F11 cells”. Besides, the “cellular localization of fluorescence” value in experiment [2] is listed as “cytosolic release”. Moreover, the “distribution of DEAC-K9 fluorescence after subsequent addition of dTAT” value in experiment [3] is “redistribution of the DEAC signal throughout the cytosol and nucleus”. Moreover, the induction of luciferase result in experiment [4] is “Neither dTAT alone nor dTAT incubated with TAT-mCherry led to the induction of luciferase”. Also, the “repeatability of dTAT-mediated delivery” value in experiment [5] was “can be repeated”.
